Experimental findings from EP0219491B1, “OXINDOLE ALKALOIDS WITH PROPERTIES STIMULATING THE IMMUNITY SYSTEM AND PREPARATIONS CONTAINING THEM” (KEPLINGER, Klaus, priority 1984, dated 1986) are described below.

The subject of one experiment is Granulozyten. Nature of the experiment: Chemiluminescence test (CL), respiratory burst of phagocytes activated with opsonised Zymosan. Format: cell-based. From the text:
Obwohl der Granulozytentest nach BRANDT eine zuverlässige Methode zur Ermittlung phagozytosesteigernder Eigenschaften von Substanzen und Extrakten darstellt, ist er sehr zeit- und personalaufwendig. Eine Alternative bietet die neue Methode der Chemilumineszenzmessung phagozytierender Zellen.
Seitdem ALLEN et al. (Biochem. Biophys. Res. Commun, 47,129,1972) als erste die Lichtemission von neutrophilen Granulozyten während der Phagozytose von Latexpartikeln und verschiedener Bakterien entdeckten und NELSON et al. (Infect. Immun 14,129,1976) und WEIDEMANN et al. (FEBS Letters 89,136,1978) CL-Erscheinungen an phagozytierenden Blutmakrophagen (Monozyten) nachweisen konnten, wird diese Reaktion auch in der experimentellen und klinischen Immunologie angewendet. Der genaue Mechanismus der dabei ablaufenden Reaktion konnte allerdings bis heute noch nicht vollständig aufgeklärt werden. Zusammenfassend lässt sich die bei aktivierten Phagozyten auftretende CL folgendermassen darstellen: der Kontakt dieser Zellen mit Bakterien, Viren oder anderem körperfremden Material, z.B. auch chemische Substanzen, führt zunächst zu einer gesteigerten Sauerstoffaufnahme. Anschliessend werden in der Zelle aus dem molekularen Sauerstoff Superoxid-Anion-Radikale O2^- gebildet, die sich dann entweder spontan oder enzymatisch katalysiert in andere aktivierte Sauerstoffmoleküle, wie Wasserstoffperoxid (H202), Singulett-Sauerstoff (^1O2), Hydroxylradikale (OH) und Hypochlorit-Anionen (OCI-) umwandeln. Dieser Vorgang wird «respiratory burst» genannt.
Durch die Freisetzung der aktivierten Sauerstoffmoleküle in die unmittelbare Umgebung der phagozytierenden Zelle, wie auch in die phagozytische Vakuole selbst und durch die Aktivierung lysosomaler Enzyme können eingedrungene Mikroorganismen oder Tumorzellen geschädigt oder getötet werden. Auch andere Moleküle sind daran beteiligt, so z.B. sogenannte kationische Proteine .und Laktoferrin. Die Zellwände der Mikroorganismen werden durch Oxidation oder Reduktion angegriffen und teilweise zerstört. Als Nebeneffekt tritt dabei CL auf, da das Zellwandmaterial als chemilumineszierendes Substrat für die aktivierten Sauerstoffmoleküle dient.
Die geringe Lichtausbeute solcher CL-Reaktionen phagozytierender Zellen wird im in-vitro-Experiment durch den Zusatz von Substanzen erhöht, die durch aktivierten Sauerstoff oxidiert werden und dabei Licht bestimmter Wellenlänge erzeugen, welches physikalisch gemessen werden kann. Als Substrate eignen sich dabei Luminol (5-Amino-2,3-dihydro-1,4-phthalazindion) und Lucigenin (10,10'-Dimethyl-9,9'-biacridiniumdini- trat), welche die CL-Antwort um das 10^3fache steigern.
Durch den Einsatz empfindlicher Messgeräte, in denen die Photonenzählung mit Hilfe von Photomultipliern erfolgt, lässt sich die durch die oben genannten Substanzen verstärkte CL messen. Es wurde ein 6-Kanal-CL-Gerät Biolumat^@ LB 9505 der Fa. Berthold benutzt, das sechs Testungen zur gleichen Zeit ermöglicht. Darüberhinaus erlaubte es das verwendete Gerät auch, die CL-Antwort zeitabhängig zu registrieren. So konnten den Dosis-Wirkungs- Kurven als dritte Dimension die zeitabhängige Wirkung hinzugefügt werden.
Zur in-vitro-Untersuchung des phagozytosesteigenden Wirkung von Substanzen können entweder gereinigte Zellpopulationen von Granulozyten oder Makrophagen verwendet werden, oder die Messung erfolgt direkt in verdünntem Vollblut.
Die Aktivierung der Phagozyten erfolgt dabei durch feste Partikel, z.B. opsonierte Bakterien, Zy- mosan^@ und Latexpartikel, oder durch bestimmte gelöste Substanzen. Bekannte Aktivatoren sind z.B. verschiedene lonophoren und Fluorid-lonen.
• a) Vollblut: 460 µl Veronal®-gepufferte Kochsalzlösung • 200 µl verdünntes Vollblut • 100 pl Lucigenin-Lösung • 200 µl in PBS (phosphat-gepufferte Kochsalzlösung) gelöste Substanz bzw. PBS als Kontrolle • b) PMNL: 630 µl Veronal@-gepufferte Kochsalzlösung • 15 µl PMNL • 100 µl Lucigenin-Lösung 200 µl in PBS gelöste Substanz bzw. PBS als Kontrolle […]

The subject of experiment [1] is Granulozytenfraktion (PMNL-Fraktion). Nature of the experiment: Granulocyte test modified after BRANDT (phagocytosis of yeast cells by PMNL). Format: cell-based, menschlichen Blut. Particulars: for Wirksamkeit im Granulozytentest: summary in words. The source says:
Neutrophile Granulozyten sind zusammen mit Makrophagen die wichtigsten Effektorzellen der Phagozytose und nehmen damit eine wichtige Stellung in der Infektabwehr ein. Sie stellen etwa 60-70% aller weissen Blutkörperchen im menschlichen Blut dar. Der Phagozytoseleistung dieser Granulozyten lässt sich in vitro nach einer von BRANDT (Scand. J. Haematol. Suppl 2, 1967) entwickelten und vonTYMPNER (Münchn. Med. WSchr. 8, 251, 1978) modifizierten Methodik messen.
Dabei wird aus dem Blut gesunder Probanden eine Granulozytenfraktion (PMNL-Fraktion) gewonnen.
Diese PMNL-Fraktion besteht hauptsächlich aus neutrophilen Granulozyten neben wenig eosinophilen und basophilen Granulozyten sowie Lymphozyten, Monozyten und Thrombozyten. Nach Zusatz einer definierten Menge von Hefezellen (Saccharomyces cerevisiae) und der zu testenden Substanz wird zunächst 10 min bei 37° C inkubiert, die Aufschwemmung auf einem Objektträger ausgestrichen und weitere 35 min bei Raumtemperatur inkubiert. Anschliessend werden die Ausstriche angefärbt und mikroskopisch ausgewertet. Pro Objektträger werden 100 PMNL-Zellen ausgewählt und bestimmt, wieviele Hefepartikel von den einzelnen Zellen phagozytiert wurden. Der Phagozytoseindex (PJ) gibt die durchschnittliche Anzahl von phagozytierten Hefepartikeln pro Granulocyt an. Die Steigerung (S) der Phagozytoseaktivität im Blindwert wurde berechnet nach: [formula]

Experiment [2] concerns Asciteszellen von Walker-250-Carcinosarkomen von Ratten. Description: Cytotoxicity by 3H-thymidine incorporation test on ascites cells. Particulars: Walker 256; 2 mg/ml; read-out: Mittelwert der Methotrexat-Hemmung. Format: cell-based. The source says: Da im Granulozytentest einige Substanzen in hoher Konzentration die Granulozyten lysierten, wurde auch die zellschädigende Wirkung am Modell des 3H-Thymidineinbautests in Asciteszellen geprüft, um eine mögliche Beziehung zwischen Phagozytosesteigerung und Cytotoxizität auffinden zu können.
In diesem in-vitro-Testsystem nach WEITZEL et al (Hoppe-Seyler's Z. Physiorog. Chem. 348, 433, 1967) kann die Cytotoxizität von Substanzen durch Hemmung der DNA-Synthese von Tumorzellen zahlenmässig durch die veränderten Einbauraten von ^3H-Tymidin in Asciteszellen von […] von Ratten erfasst werden.
Die Ergebnisse wurden mit der Kontrolle verglichen und die Hemmeffekte in Prozent ausgedrückt. Relativierung der Testergebnisse Da die prozentuale Einbauhemmung bei gleichen Substanzen Schwankungen bis zu 30% zwischen einzelnen Versuchen zeigte, wurde Methotrexat®, welches als Folsäureantagonist die DNA-Synthese hemmt, als Bezugssubstanz in jeder Versuchsreihe mitgetestet. Der Mittelwert der Methotrexat®-Hemmung (43% bei 2 mg/ml) wurde zur Ermittlung der relativen Hemmung H der Substanzen herangezogen.

The subject of a further experiment is Makrophagen-Phagozytose. Nature of the experiment: In vitro macrophage phagocytosis. It is filed as cell-based. The conditions noted are these: Konzentrationen von 10-^4% und 10-^5%.

`COc1cccc2c1cc([N+](=O)[O-])c1c(C(=O)O)cc3c(c12)OCO3` [Aristolochiasäure, reference compound]: in the experiment on Granulozyten (CL-Test mit isolierten Granulozyten, Na-Salz), the “Steigerung der Phagozytoseaktivität (respiratory burst)” value is “dosisabhängige Steigerung der Phagozytoseaktivität”.

For `COc1ccc2cc3[n+](cc2c1OC)CCc1cc2c(cc1-3)OCO2` [Berberin, reference compound], the “Wirkung im Granulozytentest” value in experiment [1] (tested up to 10^-4%) was “unwirksam”.

As to `CC[C@@]1(O)C(=O)OCc2c1cc1n(c2=O)Cc2cc3ccccc3nc2-1` [Camotothecin, reference compound], the “Wirkung im Granulozytentest” value in experiment [1] (bis zu Verdünnungen von 10-^6%) was “keine Wirkungen”.

As for `O=c1cccc2n1C[C@@H]1CNC[C@H]2C1` [Cytisin, reference compound], in experiment [1] (tested up to 10^-4%), the “Wirkung im Granulozytentest” value is on record as “keine Wirkung”.

Consider `C=C[C@]12CN(C)[C@@H]3[C@H]4CO[C@H](C[C@H]41)[C@]1(C(=O)Nc4ccccc41)[C@@H]32` [Gelsemin, reference compound], for which the “prozentuelle Phagozytosesteigerung” value is listed as 22,1% in experiment [1] (Konzentration 10^-2 (in %)), 40,4% in experiment [1] (Konzentration 10^-3 (in %)), 33,7% in experiment [1] (Konzentration 10^-4 (in %)) and 8,2% in experiment [1] (Konzentration 10^-5 (in %)).

As for `COC(=O)C1=CO[C@@H](C)[C@H]2CN3CC[C@@]4(C(=O)Nc5ccccc54)[C@@H]3C[C@H]12` [Isomitraphyllin, normal-Isomitraphyllin], the “prozentuelle Phagozytosesteigerung” value in experiment [1] (Konzentration 10^-2 (in %)) is given as 16,5%; in experiment [1] (Konzentration 10^-3 (in %)), 27,0%; in experiment [1] (Konzentration 10^-4 (in %)) it was 27,0%; in experiment [1] (Konzentration 10^-5 (in %)) it was 19,4%; in experiment [1] (Konzentration 10^-6 (in %)), 5,7%. The “Wirksamkeit im Granulozytentest” value in experiment [1] was “wirksamen”. For the same compound, the “prozentuelle Steigerung der CL-Antwort” value in the experiment on Granulozyten (Konzentration 10^-3 %) is given as 15,4%; in the experiment on Granulozyten (Konzentration 10^-4 %), 15,7%; in the experiment with Granulozyten (Konzentration 10^-5 %), 36,1%; in the experiment on Granulozyten (Konzentration 10^-6 %), 46,7%; in the experiment with Granulozyten (Konzentration 10^-7 %), 18,6%.

On to `COC(=O)C1=CO[C@@H](C)[C@@H]2CN3CC[C@@]4(C(=O)Nc5ccccc54)[C@@H]3C[C@H]12` [Isopteropodin, allo-Isopteropodin], for which the “prozentuelle Phagozytosesteigerung” value in experiment [1] (Konzentration 10^-2 (in %)) is reported as 23,4%; in experiment [1] (Konzentration 10^-3 (in %)), 48,7%; in experiment [1] (Konzentration 10^-4 (in %)), 55,0%; in experiment [1] (Konzentration 10^-5 (in %)), 38,2%; in experiment [1] (Konzentration 10^-6 (in %)), 28,2%; in experiment [1] (Konzentration 10^-7 (in %)), 13,6%. In experiment [1], the “Wirksamkeit im Granulozytentest” value is “wirksamen”. For the same compound, the “prozentuelle Steigerung der CL-Antwort” value with Granulozyten (Konzentration 10^-3 %) is given as 67,2%; in the experiment with Granulozyten (Konzentration 10^-4 %) it was 66,0%; in the experiment on Granulozyten (Konzentration 10^-5 %), 55,7%; in the experiment with Granulozyten (Konzentration 10^-6 %), 68,1%; with Granulozyten (Konzentration 10^-7 %), 55,3%; in the experiment with Granulozyten (Konzentration 10^-8 %), 31,2%.

On to `CC[C@H]1CN2CC[C@@]3(C(=O)Nc4ccccc43)[C@@H]2C[C@@H]1/C(=C\OC)C(=O)OC` [Isorhynchophyllin], for which the “prozentuelle Phagozytosesteigerung” value in experiment [1] (Konzentration 10^-2 (in %)) is given as 10,8%; in experiment [1] (Konzentration 10^-3 (in %)) it was 25,2%; in experiment [1] (Konzentration 10^-4 (in %)), 27,3%; in experiment [1] (Konzentration 10^-5 (in %)), 16,1%; in experiment [1] (Konzentration 10^-6 (in %)), 8,8%. For the same compound, the “Wirksamkeit im Granulozytentest” value in experiment [1] is given as “wirksamen”.

Turning to `CN(Cc1cnc2nc(N)nc(N)c2n1)c1ccc(C(=O)N[C@@H](CCC(=O)O)C(=O)O)cc1` [Methotrexat], the inhibition at 2000 µg/mL in experiment [2] came to 43%.

Turning to `COC(=O)C1=CO[C@@H](C)[C@H]2CN3CC[C@]4(C(=O)Nc5ccccc54)[C@@H]3C[C@H]12` [Mitraphyllin, normal-Mitraphyllin], in experiment [1], the “Wirksamkeit im Granulozytentest” value is listed as “nicht wirksamen”.

With `COC(=O)C1=CO[C@@H](C)[C@@H]2CN3CC[C@]4(C(=O)Nc5ccccc54)[C@@H]3C[C@H]12` [Pteropodin, allo-Pteropodin], the “prozentuelle Phagozytosesteigerung” value in experiment [1] (Konzentration 10^-2 (in %)) was 11,2%; in experiment [1] (Konzentration 10^-3 (in %)) it was 21,7%; in experiment [1] (Konzentration 10^-4 (in %)), 26,1%; in experiment [1] (Konzentration 10^-5 (in %)) it was 23,0%. The “Wirksamkeit im Granulozytentest” value in experiment [1] is “wirksamen”. For the same compound, the “prozentuelle Steigerung der CL-Antwort” value in the experiment with Granulozyten (Konzentration 10^-3 %) is reported as 10,6%; in the experiment with Granulozyten (Konzentration 10^-4 %), 10,0%; in the experiment with Granulozyten (Konzentration 10^-5 %), 23,7%; in the experiment with Granulozyten (Konzentration 10^-6 %), 15,4%.

With `CC[C@H]1CN2CC[C@]3(C(=O)Nc4ccccc43)[C@@H]2C[C@@H]1/C(=C\OC)C(=O)OC` [Rhynchophyllin], the “Wirksamkeit im Granulozytentest” value in experiment [1] is recorded as “nicht wirksamen”.

Take `C1CCN2C[C@@H]3C[C@@H](CN4CCCC[C@@H]34)[C@H]2C1` [Spartein, reference compound]: in experiment [1] (tested up to 10^-4%), the “Wirkung im Granulozytentest” value is recorded as “keine Wirkung”.

Take `COC(=O)C1=CO[C@@H](C)[C@@H]2CN3CC[C@@]4(C(=O)Nc5ccccc54)[C@H]3C[C@H]12` [Speciophyllin, reference compound]: the “prozentuelle Phagozytosesteigerung” value in experiment [1] (Konzentration 10^-2 (in %)) is reported as 10,5%; in experiment [1] (Konzentration 10^-3 (in %)), 18,5%; in experiment [1] (Konzentration 10^-4 (in %)), 26,0%; in experiment [1] (Konzentration 10^-5 (in %)) it was 35,3%.

`CC[C@]1(O)C[C@H]2CN(CCc3c([nH]c4ccccc34)[C@@](C(=O)OC)(c3cc4c(cc3OC)N(C=O)[C@H]3[C@@](O)(C(=O)OC)[C@H](OC(C)=O)[C@]5(CC)C=CCN6CC[C@]43[C@@H]65)C2)C1` [Vincristin, reference compound]: the “Wirkung im Granulozytentest” value in experiment [1] (bis zu Verdünnungen von 10-^6%) is “keine Wirkungen”. In addition, in the experiment on Makrophagen-Phagozytose, the “in-vitro-Hemmung der Makrophagen-Phagozytose” value is recorded as “in-vitro-Hemmung der Makrophagen-Phagozytose”.

Huangshanin [reference compound]: the “Wirkung im Granulozytentest” value in experiment [1] (tested up to 10^-4%) was “Negativ”.

Regarding Thalifaberin [reference compound], the “Wirkung im Granulozytentest” value in experiment [1] (tested up to 10^-4%) is given as “Negativ”.

With Thalifabin [reference compound], the “Wirkung im Granulozytentest” value in experiment [1] (tested up to 10^-4%) is “Negativ”.
